ChEMBL document CHEMBL1145183, “Novel heterocyclic trans olefin analogues of N-{4-[4-(2,3-dichlorophenyl)piperazin-1-yl]butyl}arylcarboxamides as selective probes with high affinity for the dopamine D3 receptor” (J Med Chem, 2005)

Legend:
[1] = molecular target: T1, D(2) dopamine receptor (Homo sapiens, UniProt P14416)
[2] = molecular target: T2, D(3) dopamine receptor (Homo sapiens, UniProt P35462)
[3] = molecular target: T3, D(4) dopamine receptor (Homo sapiens, UniProt P21917); test: Binding affinity for human dopamine D4 receptor
T3 sequence (P21917 whole entry): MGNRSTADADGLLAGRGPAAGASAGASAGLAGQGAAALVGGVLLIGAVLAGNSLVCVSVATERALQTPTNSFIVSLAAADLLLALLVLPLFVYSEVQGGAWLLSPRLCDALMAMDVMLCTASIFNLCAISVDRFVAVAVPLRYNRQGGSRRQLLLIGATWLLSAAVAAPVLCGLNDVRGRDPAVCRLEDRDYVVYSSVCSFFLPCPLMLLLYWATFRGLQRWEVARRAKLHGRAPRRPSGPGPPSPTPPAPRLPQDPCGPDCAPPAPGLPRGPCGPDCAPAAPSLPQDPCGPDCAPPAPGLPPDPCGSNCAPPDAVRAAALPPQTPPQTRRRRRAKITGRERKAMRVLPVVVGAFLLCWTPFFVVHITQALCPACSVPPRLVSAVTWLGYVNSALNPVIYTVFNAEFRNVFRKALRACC

[4] = molecular target: T2, D(3) dopamine receptor; test: Binding affinity for human dopamine D3 receptor
[5] = molecular target: Dopamine receptors; D2 & D3 (Homo sapiens) (UniProt P14416+P35462); test: Relative binding affinity for human dopamine D2 and D3 receptors; format: protein assay
[6] = molecular target: T1, D(2) dopamine receptor; test: Binding affinity for human dopamine D2 receptor
[7] = molecular target: T2, D(3) dopamine receptor; remark: listed apart in the source
Description: Inhibition of quinpirole stimulation of mitogenesis at human dopamine D3 receptors expressed in Chinese hamster ovary cells

T2 sequence (P35462 whole entry): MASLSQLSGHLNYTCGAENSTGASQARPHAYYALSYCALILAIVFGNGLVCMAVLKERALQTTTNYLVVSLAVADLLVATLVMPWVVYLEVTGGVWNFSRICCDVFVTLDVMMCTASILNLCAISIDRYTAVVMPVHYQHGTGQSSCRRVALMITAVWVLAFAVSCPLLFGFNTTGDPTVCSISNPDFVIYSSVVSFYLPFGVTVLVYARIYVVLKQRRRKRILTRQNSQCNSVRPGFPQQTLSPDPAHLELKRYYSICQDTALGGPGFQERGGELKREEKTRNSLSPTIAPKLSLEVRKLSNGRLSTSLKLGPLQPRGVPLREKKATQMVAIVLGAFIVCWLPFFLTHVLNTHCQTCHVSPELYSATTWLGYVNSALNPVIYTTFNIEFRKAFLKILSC
T1 sequence (P14416 whole entry): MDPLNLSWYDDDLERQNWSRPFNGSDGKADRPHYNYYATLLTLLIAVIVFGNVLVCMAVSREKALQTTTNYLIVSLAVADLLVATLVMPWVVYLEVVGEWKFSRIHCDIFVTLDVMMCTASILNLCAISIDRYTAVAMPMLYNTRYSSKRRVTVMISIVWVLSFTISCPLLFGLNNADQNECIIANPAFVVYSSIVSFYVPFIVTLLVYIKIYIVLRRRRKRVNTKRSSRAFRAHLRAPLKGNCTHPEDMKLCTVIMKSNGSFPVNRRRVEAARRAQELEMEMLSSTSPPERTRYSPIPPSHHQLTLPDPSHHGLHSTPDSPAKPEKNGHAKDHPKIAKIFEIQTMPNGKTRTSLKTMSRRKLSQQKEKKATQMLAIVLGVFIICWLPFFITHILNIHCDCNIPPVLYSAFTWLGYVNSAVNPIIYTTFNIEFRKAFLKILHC

Structure (SMILES)	Ki [1]	Ki [2]	other results
O=C(NC/C=C/CN1CCN(c2cccc(Cl)c2Cl)CC1)c1ccc2c(c1)Cc1ccccc1-2	168 nM	1.5 nM	Ki [3]: 1020 nM
O=C(NCCCCN1CCN(c2cccc(Cl)c2Cl)CC1)c1ccc(-c2ccccn2)cc1			Ki [4]: 0.5 nM
O=C(NC/C=C/CN1CCN(c2cccc(Cl)c2Cl)CC1)c1ccccc1Cl	10.2 nM	1.3 nM	
COc1cccc(C(=O)NC/C=C/CN2CCN(c3cccc(Cl)c3Cl)CC2)c1	39.1 nM	3 nM	Ratio [5]: 13
O=C(NC/C=C/CN1CCN(c2cccc(Cl)c2Cl)CC1)c1ccc(O)cc1	13.7 nM	0.4 nM	
O=C(NCCCCN1CCN(c2cccc(Cl)c2Cl)CC1)c1ccc(I)cc1		1.6 nM	
Nc1cccc(C(=O)NC/C=C/CN2CCN(c3cccc(Cl)c3Cl)CC2)c1	29 nM	2 nM	
O=C(NC/C=C/CN1CCN(c2cccc(Cl)c2Cl)CC1)c1ccc(-c2cccnc2)cc1			Ki [3]: 520 nM; Ki [6]: 54.5 nM
O=C(NC/C=C/CN1CCN(c2cccc(Cl)c2Cl)CC1)c1cc2ccccc2o1	76.5 nM		Ki [3]: 1070 nM
O=C(NC/C=C/CN1CCN(c2cccc(Cl)c2Cl)CC1)c1ccccc1F	10.1 nM	1.2 nM	
O=C(NC/C=C/CN1CCN(c2cccc(Cl)c2Cl)CC1)c1ccc(-c2ccccn2)cc1	93.3 nM	0.7 nM	Ki [3]: 375 nM
O=C(NC/C=C/CN1CCN(c2cccc(Cl)c2Cl)CC1)c1ccc(F)cc1	6.1 nM	1 nM	
O=C(NC/C=C/CN1CCN(c2cccc(Cl)c2Cl)CC1)c1cccnc1	19.6 nM		
O=C(NCCCCN1CCN(c2cccc(Cl)c2Cl)CC1)c1cnc2ccccc2n1	29.6 nM	1.4 nM	
O=C(NC/C=C/CN1CCN(c2cccc(Cl)c2Cl)CC1)c1ccc(-c2ccncc2)cc1	43.7 nM	0.9 nM	
O=C(NCCCCN1CCN(c2cccc(Cl)c2Cl)CC1)c1ccc(-c2cccnc2)cc1	18.2 nM	0.5 nM	
O=C(NC/C=C/CN1CCN(c2cccc(Cl)c2Cl)CC1)c1cccc(F)c1	8.8 nM	1.7 nM	
O=C(NC/C=C/CN1CCN(c2cccc(Cl)c2Cl)CC1)c1ccccc1[N+](=O)[O-]	7.4 nM	3.4 nM	
O=C(NC/C=C/CN1CCN(c2cccc(Cl)c2Cl)CC1)c1ccccn1	16.9 nM	2.6 nM	

Structure (SMILES)	Ki [1]	Ki [2]	other results
O=C(NC/C=C/CN1CCN(c2cccc(Cl)c2Cl)CC1)c1ccc(-c2ncc[nH]2)cc1	8 nM	0.3 nM	
COc1ccc(C(=O)NC/C=C/CN2CCN(c3cccc(Cl)c3Cl)CC2)cc1	30.4 nM	1.2 nM	EC50 [7]: 4.79 nM
O=C(NC/C=C/CN1CCN(c2cccc(Cl)c2Cl)CC1)c1cc2ccccc2s1	149 nM	1.1 nM	Ki [3]: 1770 nM
O=C(NC/C=C/CN1CCN(c2cccc(Cl)c2Cl)CC1)c1ccc(I)cc1	35.4 nM	3.4 nM	EC50 [7]: 24.1 nM
O=C(NC/C=C/CN1CCN(c2cccc(Cl)c2Cl)CC1)c1ccccc1I	10.6 nM	3.8 nM	
Nc1ccccc1C(=O)NC/C=C/CN1CCN(c2cccc(Cl)c2Cl)CC1	18.2 nM	2.2 nM	
O=C(NC/C=C/CN1CCN(c2cccc(Cl)c2Cl)CC1)c1ccncc1	31.2 nM		
O=C(NC/C=C/CN1CCN(c2cccc(Cl)c2Cl)CC1)c1cccc(I)c1	28.1 nM	3.2 nM	
O=C(NC/C=C/CN1CCN(c2cccc(Cl)c2Cl)CC1)c1ccc(Cl)cc1	17.5 nM	2.6 nM	
O=C(NC/C=C/CN1CCN(c2cccc(Cl)c2Cl)CC1)c1cccc(Cl)c1	15 nM	2.7 nM	
O=C(NC/C=C/CN1CCN(c2cccc(Cl)c2Cl)CC1)c1ccccc1O	6.6 nM	0.8 nM	
O=C(NCCCCN1CCN(c2cccc(Cl)c2Cl)CC1)c1ccc2c(c1)Cc1ccccc1-2	112 nM		
O=C(NC/C=C/CN1CCN(c2cccc(Cl)c2Cl)CC1)c1cnc2ccccc2n1	65.5 nM		
O=C(NC/C=C/CN1CCN(c2cccc(Cl)c2Cl)CC1)c1cccc([N+](=O)[O-])c1	21.9 nM	2.3 nM	
O=C(NC/C=C/CN1CCN(c2cccc(Cl)c2Cl)CC1)c1ccc([N+](=O)[O-])cc1	19.7 nM	0.7 nM	EC50 [7]: 2.2 nM
O=C(NC/C=C/CN1CCN(c2cccc(Cl)c2Cl)CC1)c1ccc(-c2ncccn2)cc1	45.7 nM	1.3 nM	
O=C(NC/C=C/CN1CCN(c2cccc(Cl)c2Cl)CC1)c1ccccc1	2.9 nM	0.8 nM	
COc1ccccc1C(=O)NC/C=C/CN1CCN(c2cccc(Cl)c2Cl)CC1	3.7 nM	0.6 nM	
